The first test relates to human TH17 cells. As to the kind of experiment: Inhibition of IL-17 release from human TH17 cells. It counts as cell-based. Conditions: Homo sapiens, 96 h, isolated human TH17 cells, 4 days culture, IL-17A by HTRF; read-out: pIC50 IL-17 release (converted). The source says: Inhibition of IL-17 Release from Human TH17 Cells (IL-17 Release)
This test is designed to screen compounds for their inhibitory effect on the release of IL-17 from isolated and cultured human TH17 cells.
Peripheral blood mononuclear cells (PBMC) were isolated from heparin treated human whole blood fromhealthy donors by density gradient centrifugation. TH17 cells (CD4+CXCR3-CCR6+) were enriched using a human TH17 Cell Enrichment Kit (Stemcell Technologies) according to the manufacturer's protocol. […] On day 4 supernatants were collected and IL-17A was measured using a Human IL-17 HTRF Assay kit (Cisbio Bioassays) according to the manufacturer's protocol. […] Results
Regarding `CC1(C(=O)N2Cc3cc(S(C)(=O)=O)ccc3C2C(=O)Nc2ccc(C(O)(C(F)(F)F)C(F)(F)F)cc2)CCO1` (racemic) [Example 445], the IC50 was 25.1 nM.

In the case of `CO[C@H](C)C(=O)N1Cc2cc(S(C)(=O)=O)ccc2C1C(=O)Nc1ccc(C(O)(C(F)(F)F)C(F)(F)F)cc1` (mixture of isomers) [Example 449, N-[4-(1,1,1,3,3,3-Hexafluoro-2-hydroxypropan-2-yl)phenyl]-2-[(2R)-2-methoxypropanoyl]-5-(methylsulfonyl)-2,3-dihydro-1H-isoindole-1-carboxamide], the IC50 was 79.4 nM. With `CC[C@@H](O)C(=O)N1Cc2cc(S(C)(=O)=O)ccc2C1C(=O)Nc1ccc(C(O)(C(F)(F)F)C(F)(F)F)cc1` (single isomer, unassigned) [Example 409, isomer 1], the IC50 was 63.1 nM. The same measure, in the same setting: with `CC(C)[C@@H](O)C(=O)N1Cc2cc(S(C)(=O)=O)ccc2C1C(=O)Nc1ccc(C(O)(C(F)(F)F)C(F)(F)F)cc1` (single isomer, unassigned) [Example 422] the figure was 39.8 nM; with `CC(C)[C@H](O)C(=O)N1Cc2cc(S(C)(=O)=O)ccc2C1C(=O)Nc1ccc(C(O)(C(F)(F)F)C(F)(F)F)cc1` (single isomer, unassigned) [Example 423], 79.4 nM. Same read-out and setting: the same measure for `CCS(=O)(=O)c1ccc2c(c1)CNC2C(=O)Nc1ccc(C(O)(C(F)(F)F)C(F)(F)F)cc1` (centres unmarked) [Example 100, 5-(Ethylsulfonyl)-N-[4-(1,1,1,3,3,3-hexafluoro-2-hydroxypropan-2-yl)phenyl]-2,3-dihydro-1H-isoindole-1-carboxamide]: 39.8 nM; for `CCS(=O)(=O)c1ccc2c(c1)CN(C(=O)C(F)(F)C1CC1)C2C(=O)Nc1ccc(C(O)(C(F)(F)F)C(F)(F)F)cc1` (centres unmarked) [Example 104, 2-[Cyclopropyl(difluoro)acetyl]-5-(ethylsulfonyl)-N-[4-(1,1,1,3,3,3-hexafluoro-2-hydroxypropan-2-yl)phenyl]-2,3-dihydro-1H-isoindole-1-carboxamide]: 20 nM; for `CCS(=O)(=O)c1ccc2c(c1)CN(C(=O)C1(C#N)CC1)C2C(=O)Nc1ccc(C(O)(C(F)(F)F)C(F)(F)F)cc1` (centres unmarked) [Example 105, 2-[(1-Cyanocyclopropyl)carbonyl]-5-(ethylsulfonyl)-N-[4-(1,1,1,3,3,3-hexafluoro-2-hydroxypropan-2-yl)phenyl]-2,3-dihydro-1H-isoindole-1-carboxamide]: 20 nM. Consider `CCS(=O)(=O)c1ccc2c(c1)CN(C(=O)CC(C)(C)O)C2C(=O)Nc1ccc(C(O)(C(F)(F)F)C(F)(F)F)cc1` (centres unmarked) [Example 106, 5-(Ethylsulfonyl)-N-[4-(1,1,1,3,3,3-hexafluoro-2-hydroxypropan-2-yl)phenyl]-2-(3-hydroxy-3-methylbutanoyl)-2,3-dihydro-1H-isoindole-1-carboxamide], for which the IC50 is 63.1 nM. Still for that read-out and setting: the same measure for `CCS(=O)(=O)c1ccc2c(c1)CN(C(=O)CC1(O)CC1)C2C(=O)Nc1ccc(C(O)(C(F)(F)F)C(F)(F)F)cc1` (centres unmarked) [Example 107, 5-(Ethylsulfonyl)-N-[4-(1,1,1,3,3,3-hexafluoro-2-hydroxypropan-2-yl)phenyl]-2-[(1-hydroxycyclopropyl)acetyl]-2,3-dihydro-1H-isoindole-1-carboxamide]: 50.1 nM.

As to `CCS(=O)(=O)c1ccc2c(c1)CN(C(=O)CC1CCC1)C2C(=O)Nc1ccc(C(O)(C(F)(F)F)C(F)(F)F)cc1` (centres unmarked) [Example 109, 2-(Cyclobutylacetyl)-5-(ethylsulfonyl)-N-[4-(1,1,1,3,3,3-hexafluoro-2-hydroxypropan-2-yl)phenyl]-2,3-dihydro-1H-isoindole-1-carboxamide], the IC50 was 20 nM. The same measure, in the same setting: the same measure for `CCS(=O)(=O)c1ccc2c(c1)CN(C(=O)CC1(OC)CC1)C2C(=O)Nc1ccc(C(O)(C(F)(F)F)C(F)(F)F)cc1` (centres unmarked) [Example 112, 5-(Ethylsulfonyl)-N-[4-(1,1,1,3,3,3-hexafluoro-2-hydroxypropan-2-yl)phenyl]-2-[(1-methoxycyclopropyl)acetyl]-2,3-dihydro-1H-isoindole-1-carboxamide]: 31.6 nM; for `CCS(=O)(=O)c1ccc2c(c1)CN(C(=O)C1CCOC1)C2C(=O)Nc1ccc(C(O)(C(F)(F)F)C(F)(F)F)cc1` (centres unmarked) [Example 113, 5-(Ethylsulfonyl)-N-[4-(1,1,1,3,3,3-hexafluoro-2-hydroxypropan-2-yl)phenyl]-2-(tetrahydrofuran-3-ylcarbonyl)-2,3-dihydro-1H-isoindole-1-carboxamide]: 79.4 nM; for `CCS(=O)(=O)c1ccc2c(c1)CN(C(=O)C1CCCO1)C2C(=O)Nc1ccc(C(O)(C(F)(F)F)C(F)(F)F)cc1` (centres unmarked) [Example 114, 5-(Ethylsulfonyl)-N-[4-(1,1,1,3,3,3-hexafluoro-2-hydroxypropan-2-yl)phenyl]-2-(tetrahydrofuran-2-ylcarbonyl)-2,3-dihydro-1H-isoindole-1-carboxamide]: 31.6 nM. Still for that read-out and setting: the same measure for `CCS(=O)(=O)c1ccc2c(c1)CN(C(=O)CC1(N(C)C)CC1)C2C(=O)Nc1ccc(C(O)(C(F)(F)F)C(F)(F)F)cc1` (centres unmarked) [Example 115, 2-{[1-(Dimethylamino)cyclopropyl]acetyl}-5-(ethylsulfonyl)-N-[4-(1,1,1,3,3,3-hexafluoro-2-hydroxypropan-2-yl)phenyl]-2,3-dihydro-1H-isoindole-1-carboxamide]: 63.1 nM; for `CCS(=O)(=O)c1ccc2c(c1)CN(C(=O)CC#N)C2C(=O)Nc1ccc(C(O)(C(F)(F)F)C(F)(F)F)cc1` (centres unmarked) [Example 116, 2-(Cyanoacetyl)-5-(ethylsulfonyl)-N-[4-(1,1,1,3,3,3-hexafluoro-2-hydroxypropan-2-yl)phenyl]-2,3-dihydro-1H-isoindole-1-carboxamide]: 200 nM; for `CCS(=O)(=O)c1ccc2c(c1)CN(C(=O)C1(CO)CC1)C2C(=O)Nc1ccc(C(O)(C(F)(F)F)C(F)(F)F)cc1` (centres unmarked) [Example 117, 5-(Ethylsulfonyl)-N-[4-(1,1,1,3,3,3-hexafluoro-2-hydroxypropan-2-yl)phenyl]-2-{[1-(hydroxymethyl)cyclopropyl]carbonyl}-2,3-dihydro-1H-isoindole-1-carboxamide]: 79.4 nM.

With `O=C(Nc1ccc(C(O)(C(F)(F)F)C(F)(F)F)cc1)C1NCc2cc(S(=O)(=O)CC3CC3)ccc21` (centres unmarked) [Example 200, 5-[(Cyclopropylmethyl)sulfonyl]-N-[4-(1,1,1,3,3,3-hexafluoro-2-hydroxypropan-2-yl)phenyl]-2,3-dihydro-1H-isoindole-1-carboxamide], the IC50 was 31.6 nM. Same read-out and setting: the same measure for `CCOC(=O)N1Cc2cc(S(=O)(=O)CC3CC3)ccc2C1C(=O)Nc1ccc(C(O)(C(F)(F)F)C(F)(F)F)cc1` (centres unmarked) [Example 204, Ethyl 5-[(cyclopropylmethyl)sulfonyl]-1-{[4-(1,1,1,3,3,3-hexafluoro-2-hydroxypropan-2-yl)phenyl]carbamoyl}-1,3-dihydro-2H-isoindole-2-carboxylate]: 7.94 nM. The same measure, in the same setting: with `COC1(CC(=O)N2Cc3cc(S(=O)(=O)CC4CC4)ccc3C2C(=O)Nc2ccc(C(O)(C(F)(F)F)C(F)(F)F)cc2)CC1` (centres unmarked) [Example 205, 5-[(Cyclopropylmethyl)sulfonyl]-N-[4-(1,1,1,3,3,3-hexafluoro-2-hydroxypropan-2-yl)phenyl]-2-[(1-methoxycyclopropyl)acetyl]-2,3-dihydro-1H-isoindole-1-carboxamide] the figure was 15.8 nM.

The test is the same for the next values; noted with them: isolated human TH17 cells, 4 days culture, IL-17A by HTRF; listed as 303, isomer 1.
With `CC[C@@H](O)C(=O)N1Cc2cc(S(=O)(=O)NC)ccc2C1C(=O)Nc1ccc(C(O)(C(F)(F)F)C(F)(F)F)cc1` (single isomer, unassigned) [Example 303, isomer 1], the “pIC50 IL-17 release” value amounted to 6.7.

The test is the same for the next values; noted with them: isolated human TH17 cells, 4 days culture, IL-17A by HTRF; listed as 303, isomer 2.
For `CC[C@@H](O)C(=O)N1Cc2cc(S(=O)(=O)NC)ccc2C1C(=O)Nc1ccc(C(O)(C(F)(F)F)C(F)(F)F)cc1` (single isomer, unassigned) [Example 303, isomer 2], the “pIC50 IL-17 release” value is recorded as 7.5.

Staying with this test, now noted: isolated human TH17 cells, 4 days culture, IL-17A by HTRF; listed as 307, isomer 1.
Take `CC[C@H](O)C(=O)N1Cc2cc(S(=O)(=O)NC)ccc2C1C(=O)Nc1ccc(C(O)(C(F)(F)F)C(F)(F)F)cc1` (single isomer, unassigned) [Example 307, isomer 1, (R) or (S)N-[4-(1,1,1,3,3,3-Hexafluoro-2-hydroxypropan-2-yl)phenyl]-2-[(2S)-2-hydroxybutanoyl]-5-(methylsulfamoyl)-2,3-dihydro-1H-isoindole-1-carboxamide]: the “pIC50 IL-17 release” value turned out to be 7.5.

Staying with this test, now noted: isolated human TH17 cells, 4 days culture, IL-17A by HTRF; listed as 307, isomer 2.
Take `CC[C@H](O)C(=O)N1Cc2cc(S(=O)(=O)NC)ccc2C1C(=O)Nc1ccc(C(O)(C(F)(F)F)C(F)(F)F)cc1` (single isomer, unassigned) [Example 307, isomer 2, (R) or (S)N-[4-(1,1,1,3,3,3-Hexafluoro-2-hydroxypropan-2-yl)phenyl]-2-[(2S)-2-hydroxybutanoyl]-5-(methylsulfamoyl)-2,3-dihydro-1H-isoindole-1-carboxamide]: the “pIC50 IL-17 release” value was 6.5.

The test is the same for the next values; noted with them: isolated human TH17 cells, 4 days culture, IL-17A by HTRF; listed as 452, isomer 1.
With `CC1(C(=O)N2Cc3cc(S(C)(=O)=O)ccc3[C@@H]2C(=O)Nc2ccc(C(O)(C(F)(F)F)C(F)(F)F)cc2)CCO1` (single isomer, unassigned) [Example 452, isomer 1], the “pIC50 IL-17 release” value was found to be 7.7.

Still in this test, the particulars now being: isolated human TH17 cells, 4 days culture, IL-17A by HTRF; listed as 452, isomer 2.
`CC1(C(=O)N2Cc3cc(S(C)(=O)=O)ccc3[C@@H]2C(=O)Nc2ccc(C(O)(C(F)(F)F)C(F)(F)F)cc2)CCO1` (single isomer, unassigned) [Example 452, isomer 2]: the “pIC50 IL-17 release” value is 7.3.

These data come from patent publication US10988445B2 (AstraZeneca AB, priority 2015, dated 2021).
